Data from US10650228B2, “Devices and methods for analyzing animal behavior” (Children's Medical Center Corporation, priority 2015, dated 2020).

How the values were obtained:
mice = assay: FTIR-generated paw luminance after intraplantar injection of capsaicin to the left hind paw; assay type: in vivo; conditions: 180 minutes after intraplantar injection (5 μl, 0.1%) to the left hind paw; FIG. 14B
Method: FIG. 14C illustrates that the luminance values of left and right hind paws are no different in naïve mice 0-30 minutes after being placed in chamber.

mouse = assay: FTIR imaging of weight bearing after experimental induction of inflammatory pain in the left hind paw; assay type: in vivo; conditions: mouse with induced inflammation in left hind paw, analgesic given before FTIR imaging; FIG. 8 at right
Source text: FIG. 8 illustrates examples of FTIR recordings that detect analgesic efficacy, with great sensitivity. […] For example, the FTIR images are brighter in areas where there is greater relative pressure exerted by the hind paw than in areas where there is less relative pressure exerted.

SMILES | FTIR paw luminance (weight bearing), uninjured right vs injected left hind paw (mice) | weight shift to the uninjured leg (FTIR imaging, analgesic efficacy) (mouse)
COc1cc(CNC(=O)CCCC/C=C/C(C)C)ccc1O [capsaicin] | significantly increased luminance (weight bearing) in the uninjured (right) paw compared to the capsaicin-injected left paw | –
O=C(O)Cc1ccccc1Nc1c(Cl)cccc1Cl [diclofenac] | – | does not shift its weight to the uninjured leg
